Assay results from patent publication US10899753B2, “Inhibiting agents for Bruton's tyrosine kinase” (BIOGEN MA INC., priority 2018, dated 2021).

Tests used:
BTK [1] = molecular target: T1, BTK (Homo sapiens (Human), UniProt Q06187); experiment: In Vitro BTK Kinase Assay: BTK-POLYGAT-LS ASSAY; assay type: biochemical; conditions: fluorescein-labeled polyGAT peptide 100 nM, BTK enzyme 0.25 nM, 30 minutes, TRF
Summary of the method: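 ATP […] and polyGAT peptide (100 nM), final concentrations, in Tris-HCl pH 7.5 kinase buffer with MgCl2, DTT, Triton X-100 and casein. Reaction run 30 min, stopped with EDTA, then 45 min at room temperature.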

BTK [2] = molecular target: T1, BTK; experiment: In Vitro PD Assay in Human Whole Blood (pBTK assay); assay type: cell-based; conditions: human heparinized whole blood, 37° C. for 30 min, total BTK capture and phosphotyrosine detection (ECL)
Summary of the method: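 Heparinized human venous whole blood spiked with serially diluted compound (0.1% DMSO final) and incubated 30 min at 37° C. Lysed with protease/phosphatase inhibitors (high control +PPi, low control −PPi lacking phosphatase inhibitors); total BTK captured and phosphotyrosine detected.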

T1 sequence (Q06187 whole entry): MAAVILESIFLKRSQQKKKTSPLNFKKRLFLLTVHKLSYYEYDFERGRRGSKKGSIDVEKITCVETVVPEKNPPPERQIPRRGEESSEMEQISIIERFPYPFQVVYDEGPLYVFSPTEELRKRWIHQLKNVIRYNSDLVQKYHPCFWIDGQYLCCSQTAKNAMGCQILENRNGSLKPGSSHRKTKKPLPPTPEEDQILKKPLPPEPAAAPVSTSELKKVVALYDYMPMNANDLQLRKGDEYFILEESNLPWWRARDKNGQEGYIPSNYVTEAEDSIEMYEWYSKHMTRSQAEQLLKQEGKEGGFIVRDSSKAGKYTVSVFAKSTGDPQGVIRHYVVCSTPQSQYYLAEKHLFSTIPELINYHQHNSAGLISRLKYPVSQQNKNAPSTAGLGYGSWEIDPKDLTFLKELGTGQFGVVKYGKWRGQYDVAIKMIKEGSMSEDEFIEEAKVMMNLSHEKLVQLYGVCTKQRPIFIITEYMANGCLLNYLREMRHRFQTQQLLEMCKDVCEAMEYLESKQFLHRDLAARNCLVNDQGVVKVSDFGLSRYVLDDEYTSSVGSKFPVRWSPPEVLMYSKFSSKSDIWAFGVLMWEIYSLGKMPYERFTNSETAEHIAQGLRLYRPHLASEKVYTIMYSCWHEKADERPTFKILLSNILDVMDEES

Structure (SMILES) | IC50 (BTK [1]) | IC50 (BTK [2])
Cn1cc(Nc2ncnc(-c3ccc(CNC(=O)c4coc(C(C)(C)C)n4)c(Cl)c3F)n2)cn1 [Compound 103, 2-(tert-butyl)-N-(2-chloro-3-fluoro-4-(4-((1-methyl-1H-pyrazol-4-yl)amino)-1,3,5-triazin-2-yl)benzyl)oxazole-4-carboxamide] | < 1 nM | 100 to 500 nM
Cn1ccc(Nc2ncnc(-c3ccc4c(c3)CN(C3COC3)CC[C@H]4NC(=O)c3nc(C(C)(C)C)no3)n2)n1 [Compound 98, (R)-3-(tert-butyl)-N-(8-(4-((1-methyl-1H-pyrazol-3-yl)amino)-1,3,5-triazin-2-yl)-2-(oxetan-3-yl)-2,3,4,5-tetrahydro-1H-benzo[c]azepin-5-yl)-1,2,4-oxadiazole-5-carboxamide] | < 1 nM | 100 to 500 nM
Cn1ccc(Nc2ncnc(-c3ccc(CNC(=O)c4nc(C(C)(C)C)no4)c(C(F)(F)F)c3F)n2)n1 [Compound 20, 3-(tert-butyl)-N-(3-fluoro-4-(4-((1-methyl-1H-pyrazol-3-yl)amino)-1,3,5-triazin-2-yl)-2-(trifluoromethyl)benzyl)-1,2,4-oxadiazole-5-carboxamide] | < 1 nM | 500 to 10000 nM
C[C@@H](NC(=O)c1noc(C(C)(C)C)n1)c1ccc(-c2ncnc(Nc3ccn(C)n3)n2)c(F)c1C(F)F [Compound 82, (R)-5-(tert-butyl)-N-(1-(2-(difluoromethyl)-3-fluoro-4-(4-((1-methyl-1H-pyrazol-3-yl)amino)-1,3,5-triazin-2-yl)phenyl)ethyl)-1,2,4-oxadiazole-3-carboxamide] | 1 to 10 nM | 500 to 10000 nM
Cc1cc(-c2ncnc(Nc3cnn(C)c3)n2)c(F)cc1CNC(=O)c1noc(C(C)(C)C)n1 [Compound 56, 5-(tert-butyl)-N-(5-fluoro-2-methyl-4-(4-((1-methyl-1H-pyrazol-4-yl)amino)-1,3,5-triazin-2-yl)benzyl)-1,2,4-oxadiazole-3-carboxamide] | < 1 nM | 100 to 500 nM
Cc1cc(-c2ncnc(Nc3cnn(C)c3)n2)ccc1CNC(=O)c1noc(C2(C)CC2)n1 [Compound 40, N-(2-methyl-4-(4-((1-methyl-1H-pyrazol-4-yl)amino)-1,3,5-triazin-2-yl)benzyl)-5-(1-methylcyclopropyl)-1,2,4-oxadiazole-3-carboxamide] | < 1 nM | 100 to 500 nM
Cn1ccc(Nc2ncnc(-c3ccc4c(c3)CCCC[C@H]4NC(=O)c3noc(C(C)(C)CF)n3)n2)n1 [Compound 53, (R)-5-(1-fluoro-2-methylpropan-2-yl)-N-(2-(4-((1-methyl-1H-pyrazol-3-yl)amino)-1,3,5-triazin-2-yl)-6,7,8,9-tetrahydro-5H-benzo[7]annulen-5-yl)-1,2,4-oxadiazole-3-carboxamide] | < 1 nM | 100 to 500 nM
Cc1c(CNC(=O)c2noc(C3(CF)CC3)n2)ccc(-c2ncnc(Nc3cnn(C)c3)n2)c1F [Compound 50, N-(3-fluoro-2-methyl-4-(4-((1-methyl-1H-pyrazol-4-yl)amino)-1,3,5-triazin-2-yl)benzyl)-5-(1-(fluoromethyl)cyclopropyl)-1,2,4-oxadiazole-3-carboxamide] | < 1 nM | < 100 nM
C[C@@H](NC(=O)c1nc(C(C)(C)C)no1)c1ccc(-c2ncnc(Nc3ccn(C)n3)n2)c(F)c1Cl [Compound 102, (R)-3-(tert-butyl)-N-(1-(2-chloro-3-fluoro-4-(4-((1-methyl-1H-pyrazol-3-yl)amino)-1,3,5-triazin-2-yl)phenyl)ethyl)-1,2,4-oxadiazole-5-carboxamide] | < 1 nM | 500 to 10000 nM
Cn1cc(Nc2ncnc(-c3ccc(CNC(=O)c4noc(C(C)(C)C)n4)c(C(F)(F)F)c3)n2)cn1 [Compound 17, 5-(tert-butyl)-N-(4-(4-((1-methyl-1H-pyrazol-4-yl)amino)-1,3,5-triazin-2-yl)-2-(trifluoromethyl)benzyl)-1,2,4-oxadiazole-3-carboxamide] | < 1 nM | 100 to 500 nM
Cn1cc(Nc2ncnc(-c3ccc4c(c3)CCCC[C@H]4NC(=O)c3nc(C(C)(C)C)no3)n2)cn1 [Compound 34, 3-tert-butyl-N-[(5R)-2-[4-[(1-methylpyrazol-4-yl)amino]-1,3,5-triazin-2-yl]-6,7,8,9-tetrahydro-5H-benzo[7]annulen-5-yl]-1,2,4-oxadiazole-5-carboxamide] | < 1 nM | < 100 nM
Cc1c(CNC(=O)c2coc(C(C)(C)C)n2)ccc(-c2ncnc(Nc3ccn(C)n3)n2)c1F [Compound 100, 2-(tert-butyl)-N-(3-fluoro-2-methyl-4-(4-((1-methyl-1H-pyrazol-3-yl)amino)-1,3,5-triazin-2-yl)benzyl)oxazole-4-carboxamide] | < 1 nM | 500 to 10000 nM
Cn1ccc(Nc2ncnc(-c3cc4c(cc3F)[C@H](NC(=O)c3noc(C(C)(C)C)n3)CCCC4)n2)n1 [Compound 84, (R)-5-(tert-butyl)-N-(3-fluoro-2-(4-((1-methyl-1H-pyrazol-3-yl)amino)-1,3,5-triazin-2-yl)-6,7,8,9-tetrahydro-5H-benzo[7]annulen-5-yl)-1,2,4-oxadiazole-3-carboxamide] | < 1 nM | 100 to 500 nM
Cn1ccc(Nc2ncnc(-c3ccc4c(c3F)CCCC[C@H]4NC(=O)c3nc(C(C)(C)C)no3)n2)n1 [Compound 89, (R)-3-(tert-butyl)-N-(1-fluoro-2-(4-((1-methyl-1H-pyrazol-3-yl)amino)-1,3,5-triazin-2-yl)-6,7,8,9-tetrahydro-5H-benzo[7]annulen-5-yl)-1,2,4-oxadiazole-5-carboxamide] | < 1 nM | < 100 nM
Cc1c(CNC(=O)c2cnn(C(C)(C)C)c2)ccc(-c2ncnc(Nc3cnn(C)c3)n2)c1F [Compound 36, 1-(tert-butyl)-N-(3-fluoro-2-methyl-4-(4-((1-methyl-1H-pyrazol-4-yl)amino)-1,3,5-triazin-2-yl)benzyl)-1H-pyrazole-4-carboxamide] | < 1 nM | 100 to 500 nM
Cn1ccc(Nc2ncnc(-c3ccc(CNC(=O)c4nc(C(C)(C)C)no4)c(Cl)c3)n2)n1 [Compound 6, 3-(tert-butyl)-N-(2-chloro-4-(4-((1-methyl-1H-pyrazol-3-yl)amino)-1,3,5-triazin-2-yl)benzyl)-1,2,4-oxadiazole-5-carboxamide] | < 1 nM | 500 to 10000 nM
Cn1ccc(Nc2ncnc(-c3ccc4c(c3)CN(CC(F)(F)F)CC[C@H]4NC(=O)c3coc(C(C)(C)C)n3)n2)n1 [Compound 95, (R)-2-(tert-butyl)-N-(8-(4-((1-methyl-1H-pyrazol-3-yl)amino)-1,3,5-triazin-2-yl)-2-(2,2,2-trifluoroethyl)-2,3,4,5-tetrahydro-1H-benzo[c]azepin-5-yl)oxazole-4-carboxamide] | < 1 nM | 500 to 10000 nM
Cc1c(CNC(=O)c2ncc(C(C)(C)C)o2)ccc(-c2ncnc(Nc3cnn(C)c3)n2)c1F [Compound 31, 5-(tert-butyl)-N-(3-fluoro-2-methyl-4-(4-((1-methyl-1H-pyrazol-4-yl)amino)-1,3,5-triazin-2-yl)benzyl)oxazole-2-carboxamide] | < 1 nM | 500 to 10000 nM
Cc1cc(-c2ncnc(Nc3cnn(C)c3)n2)c(F)cc1CNC(=O)c1coc(C(C)(C)C)n1 [Compound 65, 2-(tert-butyl)-N-(5-fluoro-2-methyl-4-(4-((1-methyl-1H-pyrazol-4-yl)amino)-1,3,5-triazin-2-yl)benzyl)oxazole-4-carboxamide] | < 1 nM | 500 to 10000 nM
Cn1cc(Nc2ncnc(-c3ccc4c(c3)CCCC[C@H]4NC(=O)c3cnc(C(C)(C)C)o3)n2)cn1 [Compound 35, 2-tert-butyl-N-[(5R)-2-[4-[(1-methylpyrazol-4-yl)amino]-1,3,5-triazin-2-yl]-6,7,8,9-tetrahydro-5H-benzo[7]annulen-5-yl]-oxazole-5-carboxamide] | < 1 nM | 100 to 500 nM
Cc1cc(-c2ncnc(Nc3cnn(C)c3)n2)ccc1CNC(=O)c1nc(C(C)(C)C)co1 [Compound 114, 4-(tert-butyl)-N-(2-methyl-4-(4-((1-methyl-1H-pyrazol-4-yl)amino)-1,3,5-triazin-2-yl)benzyl)oxazole-2-carboxamide] | < 1 nM | 500 to 10000 nM
Cc1cc(-c2ncnc(Nc3cnn(C)c3)n2)ccc1CNC(=O)c1nc(C(C)(C)C)no1 [Compound 12, 3-(tert-butyl)-N-(2-methyl-4-(4-((1-methyl-1H-pyrazol-4-yl)amino)-1,3,5-triazin-2-yl)benzyl)-1,2,4-oxadiazole-5-carboxamide] | < 1 nM | 100 to 500 nM
Cc1c(CNC(=O)c2nc(C(C)(C)C)no2)ccc(-c2ncnc(Nc3cnn(C)c3)n2)c1F [Compound 14, 3-(tert-butyl)-N-(3-fluoro-2-methyl-4-(4-((1-methyl-1H-pyrazol-4-yl)amino)-1,3,5-triazin-2-yl)benzyl)-1,2,4-oxadiazole-5-carboxamide] | < 1 nM | < 100 nM
Cn1cc(Nc2ncnc(-c3ccc4c(c3)CN(CC(F)(F)F)CC[C@H]4NC(=O)c3noc(C(C)(C)C)n3)n2)cn1 [Compound 90, (R)-5-(tert-butyl)-N-(8-(4-((1-methyl-1H-pyrazol-4-yl)amino)-1,3,5-triazin-2-yl)-2-(2,2,2-trifluoroethyl)-2,3,4,5-tetrahydro-1H-benzo[c]azepin-5-yl)-1,2,4-oxadiazole-3-carboxamide] | < 1 nM | < 100 nM
Cn1ccc(Nc2ncnc(-c3ccc(CNC(=O)c4nc(C(C)(C)C)no4)c(Cl)c3F)n2)n1 [Compound 22, 3-(tert-butyl)-N-(2-chloro-3-fluoro-4-(4-((1-methyl-1H-pyrazol-3-yl)amino)-1,3,5-triazin-2-yl)benzyl)-1,2,4-oxadiazole-5-carboxamide] | < 1 nM | 500 to 10000 nM
